US20220088155A1, “SUBCONJUNCTIVAL CHEMOTHERAPEUTIC DELIVERY BY FIBRIN SEALANT IN THE TREATMENT OF RETINOBLASTOMA” (BAXTER INTERNATIONALINC., priority 2019, published 2022)
Where two headings read alike, the source gives them in different places.

Legend:
[1] = test system: WERI retinoblastoma cells; assay: Cell viability assay (resazurin/Alamar Blue), WERI; format: cell-based, human; details: single drug, read-out: Standalone IC50
Experimental: (§1) The human retinoblastoma Y79 (ATCC® HTB18™) and WERI (ATCC® HTB169™) cell lines were cultured in RPMI 1640 (ATCC®) medium supplemented with 20% (Y79) or 10% (WERI-RB) fetal bovine serum, 100 U/mL penicillin, and […] streptomycin in a humidified atmosphere of 5% CO2 at 37° C., grown in 75 cm^2 tissue culture flasks. Once confluent, cells were sub cultivated with fresh medium 1:2 to 1:4 ratios after discarding the supernatant and obtaining the gravity-settled aggregates.
(§2) 10 mL of cell suspension were centrifuged at 1000 G for 10 minutes. The supernatant was discarded and the pellet was then resuspended in media to 1.1*10^5 live cells/mL following a viability cell count check. Cells were plated in 96-well plates at 10,000 cells per well. Sample wells were treated with carboplatin, etoposide or vincristine at the concentrations of 1000 uM, 100 uM, 50 uM, 10 uM, 5 uM, 1 uM, 0.5 uM, and 0.1 uM. Untreated and non-cell controls include a 10 uL vehicle, bringing up all wells to 100 uL total volume. Experiments covered 24/48/72 hour incubations at 5% CO2 at 37° C. prior to analyses. Plates ready for analysis were incubated with 10 uL of 10× Alamar Blue Reagent for 1-4 hours (apparent color change) and emission intensity read at 585 nm following a 555 nm excitation.
(§3) Y79 and WERI cells were incubated with Vincristine, Etoposide, or Carboplatin using previously established half-maximal inhibitory concentrations in a fixed-ratio treatment paradigm. Y79 and WERI cells also were incubated with a mixture of Vincristine, Etoposide, or Carboplatin.

Y79 retinoblastoma cells = assay: Cell viability assay (resazurin/Alamar Blue), Y79; format: cell-based, human; details: single drug, read-out: Standalone IC50
Experimental: as §1, §2, §3

TISSEEL fibrin sealant = target: T1, TISSEEL fibrin sealant (Homo sapiens, UniProt P02671+P02675+P02679); assay: Scanning electron microscopy branching analysis of drug-embedded fibrin sealant; details: fibrin sealant admixed with 1 mM drug, SEM 5,000x, ImageJ skeleton analysis
T1 construct: purchased
T1 sequence (P02671 20-644 isoform P02671-2 limits assumed): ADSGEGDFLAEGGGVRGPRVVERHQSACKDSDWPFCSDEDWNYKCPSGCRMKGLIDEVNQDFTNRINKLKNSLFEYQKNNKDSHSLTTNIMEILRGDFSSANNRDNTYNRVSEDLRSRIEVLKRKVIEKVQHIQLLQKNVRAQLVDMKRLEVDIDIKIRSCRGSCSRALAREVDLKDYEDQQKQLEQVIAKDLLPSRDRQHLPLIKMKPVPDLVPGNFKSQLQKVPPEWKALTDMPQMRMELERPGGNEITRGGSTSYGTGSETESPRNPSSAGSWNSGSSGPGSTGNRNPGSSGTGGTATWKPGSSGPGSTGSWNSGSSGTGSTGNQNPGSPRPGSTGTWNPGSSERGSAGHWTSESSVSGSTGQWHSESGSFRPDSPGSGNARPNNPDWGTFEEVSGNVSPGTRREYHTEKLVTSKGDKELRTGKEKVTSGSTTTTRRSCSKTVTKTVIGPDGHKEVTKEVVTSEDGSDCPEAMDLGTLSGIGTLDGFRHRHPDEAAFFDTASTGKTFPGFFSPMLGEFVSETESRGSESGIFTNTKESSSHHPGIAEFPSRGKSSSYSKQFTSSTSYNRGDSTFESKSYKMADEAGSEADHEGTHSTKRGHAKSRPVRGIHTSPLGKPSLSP
T1 sequence (P02675 45-491 limits assumed): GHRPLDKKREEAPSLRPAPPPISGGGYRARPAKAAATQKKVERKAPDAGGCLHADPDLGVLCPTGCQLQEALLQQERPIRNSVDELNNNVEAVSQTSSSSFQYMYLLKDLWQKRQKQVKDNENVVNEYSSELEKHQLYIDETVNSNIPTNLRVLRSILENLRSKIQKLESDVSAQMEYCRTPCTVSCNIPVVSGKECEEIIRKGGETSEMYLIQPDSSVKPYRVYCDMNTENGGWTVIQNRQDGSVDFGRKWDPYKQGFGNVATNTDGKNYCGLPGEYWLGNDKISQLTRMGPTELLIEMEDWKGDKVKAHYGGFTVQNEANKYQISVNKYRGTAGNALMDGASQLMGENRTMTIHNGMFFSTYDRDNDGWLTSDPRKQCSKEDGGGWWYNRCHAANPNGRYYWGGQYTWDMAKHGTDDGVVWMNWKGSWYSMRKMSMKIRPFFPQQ
T1 sequence (P02679 27-437 isoform P02679-2 limits assumed): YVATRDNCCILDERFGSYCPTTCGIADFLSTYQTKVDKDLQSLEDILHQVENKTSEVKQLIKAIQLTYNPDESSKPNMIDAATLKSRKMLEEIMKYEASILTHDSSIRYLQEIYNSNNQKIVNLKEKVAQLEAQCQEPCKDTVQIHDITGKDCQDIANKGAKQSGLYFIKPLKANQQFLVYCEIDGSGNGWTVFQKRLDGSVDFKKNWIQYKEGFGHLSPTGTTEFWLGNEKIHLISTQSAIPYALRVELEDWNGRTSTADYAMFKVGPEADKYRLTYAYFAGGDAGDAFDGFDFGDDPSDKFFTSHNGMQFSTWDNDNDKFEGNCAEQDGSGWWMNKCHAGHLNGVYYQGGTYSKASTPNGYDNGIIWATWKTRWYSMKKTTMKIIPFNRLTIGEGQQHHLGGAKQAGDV
Experimental: FIGS. 8A to 8D depict fiber analysis of VEC-embedded fibrin sealant. Commercially available fibrin sealant was admixed with 1 mM additions of Vincristine, Etoposide, or Carboplatin. Samples were critically point dried and imaged by scanning electron microscopy at 5,000× magnification at various points around the samples. Images were uploaded into ImageJ for fiber analysis. […] In FIG. 8B, the images were binarized to 8-bit grayscale. In FIG. 8C, the binarized image was skeletonized to produce a representation of the fiber network. The Analyze Skeleton function was used to quantify fiber branches and junctions. […] Images analysed were taken at 5,000× magnificent and compared over a 800×800 pixel area. TISSEEL™ or TISSEEL™ admixed with chemotherapeutic drug (1 mM final concentration) was prepared according to the IFU. In short, 2 mM additions of chemotherapy were transferred via syringe and needle to the thrombin vial (500 IU/mL thrombin) during preparation and placed in a Fibrinotherm to spin and heat the mixtures to 37 degrees celsius. Following complete dissolution of both thrombin and fibrinogen solutions, each solution was pulled up into respective syringes and loaded in the Duploject spray system accompanying the kit. The 1 mL volumes of thrombin and fibrinogen (2 mL total) were sprayed onto collagen casing. Immediately following coagulation (˜30 seconds), the samples were washed 3× in cacodylate buffer for 10 minutes and fixed in 2% glutaraldehyde buffer (Electron Microscopy Sciences). Fixed clots were washed, serially dehydrated with ethanol, and dried with hexamethyldisilizane (Electron Microscopy Sciences). Clots were allowed to air dry overnight thereafter. Clots were then teased apart with forceps and mounted on aluminum sample supports with carbon adhesive tape. Samples were sputter coated with 20 nm iridium metal in a Leica ACE600 and analyzed by scanning electron microscopy (FEI Quanta 650 FEG). Branching analysis was performed using 2D images cross-sectional cuts of fibrin clots. Representative images and sections displaying easily discernible fibrin branching characteristics were selected from each group. Images were processed using ImageJ's skeleton analysis function. In short, images were first binarized to delineate the image further into branch and background sections. Binary images were then placed through the Analyze Skeleton (2D/3D) function with no pruning or selected parameters. The output file included details such as branch lengths, branch numbers, and number of junctions.

Row | SMILES | IC50 ([1]; Homo sapiens) [nM] | IC50 (Y79 retinoblastoma cells; Homo sapiens) [nM] | Avg Branch length (TISSEEL fibrin sealant) [nm] | Branch/Junction Ratio (TISSEEL fibrin sealant) | Junctions (TISSEEL fibrin sealant) | Max Branch Number (TISSEEL fibrin sealant) | IC50 [1] [nM] | IC50 (Y79 retinoblastoma cells) [nM]
1 | COc1cc([C@@H]2c3cc4c(cc3[C@@H](O[C@@H]3O[C@@H]5CO[C@@H](C)O[C@H]5[C@H](O)[C@H]3O)[C@H]3COC(=O)[C@H]23)OCO4)cc(OC)c1O [Etoposide] | 2700 | 6000 | 21 | 66.2 | 125 +/− 2.1 | 8272 +/− 140 |  | 
2 | N.N.O=C([O-])C1(C(=O)[O-])CCC1.[Pt+2] [Carboplatin] |  |  | 19 | 68.0 | 148 +/− 2.6 | 10065 +/− 142 | 1000 | 1100
3 | CC[C@]1(O)C[C@H]2CN(CCc3c([nH]c4ccccc34)[C@@](C(=O)OC)(c3cc4c(cc3OC)N(C=O)[C@H]3[C@@](O)(C(=O)OC)[C@H](OC(C)=O)[C@]5(CC)C=CCN6CC[C@]43[C@@H]65)C2)C1 [Vincristine] | 2900 | 100 | 22 | 55.7 | 136 +/− 2.3 | 7580 +/− 125 |  | 
